# Assay results from patent US10266545B2, “Coumarin derivative as antiviral agent, pharmaceutical composition thereof, its preparation and use” (I-NOVA MEDICINSKA ISTRAZIVANJA D.O.O., priority 2016, dated 2019).
# Test system: HIV-1
# Experiment: Microtiter infectivity assay: protection of MT-4 cells from cytopathic effect of HIV-1 (MTT)
# Format: cell-based, human immunodeficiency virus 1 (HIV-1) subtype B
# Conditions: for IC50: Human immunodeficiency virus 1, MT4, inhibits 50% viral replication; for Survival (% protection): MT-4 cells infected with HIV-1; for SI = CC50/IC50: selectivity index, MT-4 cells, MTT assay
# Description: The first study of antiviral activity of compound 1 and the control compound 2 was performed on example of its influence on replication of human immunodeficiency virus 1 (HIV-1) by microtiter infectivity assay in cell culture and by evaluation of concentration of compound 1 or 2, which inhibits virus replication by 50% (IC50) as well as by selectivity index (SI).
# The cell line used in this study was also the MT-4 cell line as described above.
# A microplate assay of infectivity in cell culture, based on consideration of a cytopathic effect of the virus was described in the literature, see reference 8. At least 4 different concentrations: 10×MNC, MNC^−1, MNC^−2, and MNC^−3 were used.
# In each trial, the following controls were set: • (i) cell control—only cells in culture medium and not infected with the virus; and • (ii) viral control—one column to cells infected with the virus were added only medium (200 μl) without the test compound 1 or the control compound 2.
# The activity of compound 1 or control compound 2 against the cytopathic effect of HIV-1 was expressed as percentage (%) protection (survival) of the cells defined by the following formula:
# [formula] wherein: • ODVS=absorption of cells infected and treated with compound 1 or 2 • ODVC=absorption of the virus-infected cells (virus control without compound 1 or 2), and • ODCC=absorption of uninfected cells (cell control)
# The inhibitory concentration 50% (IC50) was defined as the concentration of test compound 1 or control compound 2, expressed in mM, which inhibits 50% viral replication. IC50 was determined directly from the curve “dose (concentration)—response (anti-HIV effect)”. The IC50 was expressed as percentage (%) of: • (i) cell viability which was obtained by the MTT assay; or • (ii) percentage (%) inhibition of enzyme reverse transcriptase (RT) activity.
# On the basic of the data about CC50 and IC50 for the test substance 1 or control substance 2, the selectivity index (SI) value was estimated.
# The compounds 1 or 2 were dissolved in dimethyl sulfoxide (DMSO; Sigma-Aldrich, USA) to a concentration of 1 mol/l (1 M) and after diluted in cell growth medium RPMI 1640 with 2% heat inactivated fetal bovine serum (FBS; Sigma-Aldrich, USA). All further solutions of compounds 1 or 2 were prepared ex tempore.
# MT-4 cell line was not infected with HIV-1 and was used as a classic model for reproduction of acute infection with HIV-1. The cells were cultivated in RPMI 1640 growth medium supplemented with 15% fetal bovine serum (FBS; Sigma-Aldrich, USA), 100 U/ml penicillin G sodium (Sigma-Aldrich, USA), and 100 μg/ml streptomycin sulphate (Sigma-Aldrich, USA).
# HIV-1 culture fluid was chronically infected and producing HIV-1 subtype B cell line H9/HTLV III B. The culture fluid was centrifuged and collected as a virus stock. The latter, used in the experiments, was of predetermined infectivity of 2·10^6 infectious virions/ml according to the microtiter infectivity assay based on the cytopathic effect of HIV, through ingestion of MTT, containing protein 24 antigen (p24) and enzyme reverse transcriptase (RT).
# After counting the cells, they were resuspended in growth medium at a concentration of 6-8·10^4 cells/100 μl. Followed screening of cell suspensions (100 μl/well of that above) into sterile 96-well plates pretreated with poly-L-lysine (PLL). Since the final volume of the culture medium in each well was 200 μl, additional 100 μl of 10% FBS (containing no cells) was added. At the end of rows and columns were not seeded cells, but only culture medium without FBS.
# After 24 h, the supernatant was decanted and added in 50 μl HIV-1 in dilution 10^−1. One or two columns were not infected, acting as the control cells. The plate was placed in an incubator at 37° C. and 5% content of CO2, for 1 h. The virus was then removed and in one or two columns of infected cells were added 200 μl medium containing the appropriate concentration of the test substance 1 or the control substance 2. […]
# [1] = MT-4 cells infected with HIV-1, MTT assay
SMILES,IC50 [1] [nM],Survival (% protection) (concentration 0.000001 mM) [%],Survival (% protection) (concentration 0.00001 mM) [%],Survival (% protection) (concentration 0.0001 mM) [%],Survival (% protection) (concentration 0.001 mM) [%],Survival (% protection) (concentration 0.005 mM) [%],Survival (% protection) (concentration 0.01 mM (MNC)) [%],SI = CC50/IC50,"% protection of the MT-4 cells in MNC (Table 3, MT-4 cells infected with HIV-1, MTT assay, at MNC) [%]"
"O=c1oc2cc(O)c(O)cc2c(O)c1-c1coc2c1c(=O)oc1cc(O)c(O)cc12 [Compound 2, 7,8-dihydroxy-3-(4,6,7-trihydroxy-2-oxo-2H-chromen-3-yl)-4H-furo[3,2-c]chromen-4-one, reference compound]",5000,0,0,0,25,50,55,2 · 10^3,
"O=c1oc2cc(O)cc(O)c2c(O)c1-c1coc2c1c(=O)oc1cc(O)cc(O)c12 [Compound 1, 7,9-dihydroxy-3-(4,5,7-trihydroxy-2-oxo-2H-chromene-3-yl)-4H-furo[3,2-c]chromen-4-one]",10,0,50,55,60,75,92,1000 · 10^3,100
